Square brackets hold non-standard residues; d marks the D form. Peptide text beside a SMILES is read from it. pGlu = O=C1CC[C@@H](C(=O)O)N1
Tested on: drug-resistant Mycobacterium tuberculosis
Conditions: 5 micrograms per ml

CC[C@H](C)[C@H](NC(=O)[C@H](CCCCN)NC(=O)[C@@H]1CCCN1C(=O)[C@H](CCCNC(=N)N)NC(=O)[C@@H]1CCCN1C(=O)[C@@H]1CCCN1C(=O)[C@H](CC(C)C)NC(=O)CNC(=O)[C@@H]1CCC(=O)N1)C(=O)N1CCC[C@H]1C(=O)N1CCC[C@H]1C(=O)O [Bradykinin potentiator B, Pyr-Gly-Leu-Pro-Pro-Arg-Pro-Lys-Ile-Pro-Pro-OH] ([pGlu]GLPPRPKIPP-OH)
% inhibition: 0.0%

— patent publication US20100204141A1, “USE OF BPP-B AS A THERAPEUTIC AGENT” (priority 2007, published 2010)
